US20250320213A1, “Nitrogen-Containing Heterocyclic Compounds” (Pfizer Inc., priority 2024, published 2025)
Read-outs that look alike come from different tables or passages of the source.

How the values were obtained:
[1] = system: CCL17 secretion in peripheral human whole blood; experiment: Human Whole Blood (HWB) CCL17 TR-FRET Assay (IL-13 stimulated CCL17 secretion); type: cell-based
Method in brief: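 Compounds are titrated (11 points, 3-fold, duplicate) into fresh heparinized human whole blood and held 2 h at 37 °C before IL-13 challenge (10 ng/mL final). After 48 h at 37 °C, serum CCL17 is measured by TR-FRET sandwich assay and IC50 values are calculated.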

[2] = molecular target: T1, STAT6 (Homo sapiens, UniProt P42226); experiment: STAT6 Reporter Luciferase Assay (IL-13 stimulated HaCaT keratinocyte NanoLuc reporter cells); type: cell-based; settings: read-out: Reporter EC50
T1 construct: stably transfected HaCaT keratinocyte cell line, which expresses NanoLuc luciferase reporter gene under the transcriptional control of the STAT6 responsive promoter; endogenous in cells; host or cells: HaCaT keratinocyte reporter cell line (stably transfected with a NanoLuc reporter)
T1 sequence (P42226 1-847): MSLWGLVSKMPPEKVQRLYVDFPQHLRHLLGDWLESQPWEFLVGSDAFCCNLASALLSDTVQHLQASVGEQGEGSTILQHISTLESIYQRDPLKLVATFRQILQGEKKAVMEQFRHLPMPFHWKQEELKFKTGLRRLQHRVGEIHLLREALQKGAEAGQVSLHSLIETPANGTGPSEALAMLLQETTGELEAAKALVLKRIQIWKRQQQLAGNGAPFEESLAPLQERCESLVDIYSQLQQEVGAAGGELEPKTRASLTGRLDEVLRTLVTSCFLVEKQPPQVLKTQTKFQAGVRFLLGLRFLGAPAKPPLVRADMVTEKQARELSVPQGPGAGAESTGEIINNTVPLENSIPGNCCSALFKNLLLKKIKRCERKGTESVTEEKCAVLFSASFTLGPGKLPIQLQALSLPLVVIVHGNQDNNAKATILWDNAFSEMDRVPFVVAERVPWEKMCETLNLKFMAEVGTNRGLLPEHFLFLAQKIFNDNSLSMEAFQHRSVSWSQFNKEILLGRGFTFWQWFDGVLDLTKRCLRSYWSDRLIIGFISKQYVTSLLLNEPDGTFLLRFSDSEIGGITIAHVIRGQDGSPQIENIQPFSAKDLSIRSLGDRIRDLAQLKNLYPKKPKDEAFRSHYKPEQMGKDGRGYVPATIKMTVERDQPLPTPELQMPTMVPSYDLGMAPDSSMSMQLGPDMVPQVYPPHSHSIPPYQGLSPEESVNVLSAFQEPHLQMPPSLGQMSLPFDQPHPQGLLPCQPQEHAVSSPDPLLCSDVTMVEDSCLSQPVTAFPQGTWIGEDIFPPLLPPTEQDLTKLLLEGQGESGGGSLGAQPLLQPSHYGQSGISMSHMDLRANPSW
Method in brief: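 Compounds were tested as 11-point, 4-fold series in duplicate, applied for 2 h at 37 °C in low-serum (2% FBS) DMEM. The cells were a stable HaCaT line with NanoLuc under a STAT6-responsive IL-13Ra2 promoter. After 4 h with 0.12 nM IL-13, Nano-Glo luminescence was measured.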

[3] = Homo sapiens, 48 h, human whole blood, IL-13 stimulated
[4] = IL-13 stimulated HaCaT STAT6 NanoLuc reporter cells
[5] = Homo sapiens, 48 h, human whole blood, 10 ng/mL IL13, 48 hours
[6] = inhibition of CCL17 secretion in human whole blood, 10 ng/mL IL13, 48 hours
[7] = STAT6 NanoLuc luciferase reporter, IL-13 stimulated HaCaT keratinocyte cells

Row | IC50 [1, 3] [nM] | EC50 [2, 4] [nM] | SMILES | also measured
1 | 129 | 73 | CC(CO)n1nc(C(=O)NCc2ccc(NC(=O)N(C)C)cc2)c2c1CCN(c1ccc(C(=O)N(C)C)cn1)C2 (racemic) [Example 351, rac-(R)-5-(5-(dimethylcarbamoyl)pyridin-2-yl)-N-(4-(3,3-dimethylureido)benzyl)-1-(1-hydroxypropan-2-yl)-4,5,6,7-tetrahydro-1H-pyrazolo[4,3-c]pyridine-3-carboxamide] | 
2 | 112 | 51 | CC(CC#N)n1nc(C(=O)NCc2ccc(NC(=O)N(C)C)cc2)c2c1CCN(c1ccc(C(=O)N(C)C)cn1)C2 (racemic) [Example 358, rac-(R)-1-(1-cyanopropan-2-yl)-5-(5-(dimethylcarbamoyl)pyridin-2-yl)-N-(4-(3,3-dimethylureido)benzyl)-4,5,6,7-tetrahydro-1H-pyrazolo[4,3-c]pyridine-3-carboxamide] | 
3 | 9 | 2 | CCc1nc(C(=O)NCc2ccc(NC(=O)N(C)C)cc2)c2n1C(C)CN(c1ccc(C(=O)N(C)C)cc1)C2 (racemic) [Example 399, rac-(R)-7-(4-(dimethylcarbamoyl)phenyl)-N-(4-(3,3-dimethylureido)benzyl)-3-ethyl-5-methyl-5,6,7,8-tetrahydroimidazo[1,5-a]lpyrazine-1-carboxamide] | 
4 | 2 | 0.3 | CC(C)n1nc(C(=O)NCc2ccc(NC(=O)N(C)C)cc2)c2c1C(C(F)(F)F)CN(c1ncc(C(=O)N(C)C)cn1)C2 (racemic) [Example 459, rac-(R)-5-(5-(dimethylcarbamoyl)pyrimidin-2-yl)-N-(4-(3,3-dimethylureido)benzyl)-1-isopropyl-7-(trifluoromethyl)-4,5,6,7-tetrahydro-1H-pyrazolo[4,3-c]pyridine-3-carboxamide] | 
5 | 7 | 0.3 | CCn1nc(C(=O)NCc2ccc(NC(=O)N(C)C)cc2)c2c1C(C(F)(F)F)CN(c1ncc(C(=O)N(C)C)cn1)C2 (racemic) [Example 460, rac-(R)-5-(5-(dimethylcarbamoyl)pyrimidin-2-yl)-N-(4-(3,3-dimethylureido)benzyl)-1-ethyl-7-(trifluoromethyl)-4,5,6,7-tetrahydro-1H-pyrazolo[4,3-c]pyridine-3-carboxamide] | 
6 | 23 | 2.7 | CCn1nc(C(=O)NCc2ccc(C(=O)NC)cc2)c2c1C(C(F)(F)F)CN(c1ccc(C(=O)N(C)C)cn1)C2 (racemic) [Example 463, rac-(R)-5-(5-(dimethylcarbamoyl)pyridin-2-yl)-1-ethyl-N-(4-(methylcarbamoyl)benzyl)-7-(trifluoromethyl)-4,5,6,7-tetrahydro-1H-pyrazolo[4,3-c]pyridine-3-carboxamide] | 
7 | 120 | 41 | CC(C)n1nc(C(=O)NCc2ccc(NC(=O)N(C)C)cc2)c2c1C(O)CN(c1ccc(C(=O)N(C)C)cn1)C2 (racemic) [Example 472, rac-(R)-5-(5-(dimethylcarbamoyl)pyridin-2-yl)-N-(4-(3,3-dimethylureido)benzyl)-7-hydroxy-1-isopropyl-4,5,6,7-tetrahydro-1H-pyrazolo[4,3-c]pyridine-3-carboxamide] | 
8 | > 30000 | 7900 | CC(C)n1nc(C(=O)NCc2ccc(NC(=O)N(C)C)cc2)c2c1CCN(c1ccc(C3CCN(C)C3=O)cn1)C2 (racemic) [Example 505, rac-(R)-N-(4-(3,3-dimethylureido)benzyl)-1-isopropyl-5-(5-(1-methyl-2-oxopyrrolidin-3-yl)pyridin-2-yl)-4,5,6,7-tetrahydro-1H-pyrazolo[4,3-c]pyridine-3-carboxamide] | 
9 | 6 | 0.1 | CC1c2c(C(=O)NCc3ccc(NC(=O)N(C)C)cc3)nn(C(C)C)c2[C@@H](C)CN1c1ccc(C(=O)N(C)C)cn1 (mixture of isomers) [Example 524, (4RS,7S)-5-(5-(Dimethylcarbamoyl)pyridin-2-yl)-N-(4-(3,3-dimethylureido)benzyl)-1-isopropyl-4,7-dimethyl-4,5,6,7-tetrahydro-1H-pyrazolo[4,3-c]pyridine-3-carboxamide] | 
10 |  | 1 | CCn1nc(C(=O)NCc2ccc(NC(=O)N(C)C)cc2)c2c1C(C)CN(c1ncc(C(=O)N(C)C)cn1)C2 (racemic) [Example 531, rac-(R)-5-(5-(dimethylcarbamoyl)pyrimidin-2-yl)-N-(4-(3,3-dimethylureido)benzyl)-1-ethyl-7-methyl-4,5,6,7-tetrahydro-1H-pyrazolo[4,3-c]pyridine-3-carboxamide] | IC50 [1, 5]: 14 nM
11 |  | 1 | CC1CN(c2ncc(C(=O)N(C)C)cn2)Cc2c(C(=O)NCc3ccc(NC(=O)N(C)C)cc3)nn(C(C)C)c21 (racemic) [Example 532, rac-(R)-5-(5-(dimethylcarbamoyl)pyrimidin-2-yl)-N-(4-(3,3-dimethylureido)benzyl)-1-isopropyl-7-methyl-4,5,6,7-tetrahydro-1H-pyrazolo[4,3-c]pyridine-3-carboxamide] | IC50 [1, 5]: 4 nM
12 |  | 1 | CC(C)c1nc(C(=O)NCc2ccc(NC(=O)N(C)C)cc2)c2n1[C@@H](C)CN(c1ccc(C(=O)N(C)C)cc1)C2 (racemic) [Example 537, rac-(R)-7-(4-(Dimethylcarbamoyl)phenyl)-N-(4-(3,3-dimethylureido)benzyl)-3-isopropyl-5-methyl-5,6,7,8-tetrahydroimidazo[1,5-a]pyrazine-1-carboxamide] | IC50 [1, 5]: 10 nM
13 |  | 0.3 | CC(C)n1nc(C(=O)NCc2ccc(NC(=O)N(C)C)cc2)c2c1C(C(F)(F)F)CN(c1ccc(C(=O)N(C)C)cn1)C2 (racemic) [Example 546, rac-(R)-5-(5-(Dimethylcarbamoyl)pyridin-2-yl)-N-(4-(3,3-dimethylureido)benzyl)-1-isopropyl-7-(trifluoromethyl)-4,5,6,7-tetrahydro-1H-pyrazolo[4,3-c]pyridine-3-carboxamide] | IC50 [1, 5]: 5 nM
14 |  |  | CC1CN(c2ccc(C(=O)N(C)C)cn2)Cc2c(C(=O)NCc3ccc(NC(=O)N(C)C)cc3)nn(C)c21 (single isomer, unassigned) [Example 7, rel-(R or S)-5-(5-(Dimethylcarbamoyl)pyridin-2-yl)-N-(4-(3,3-dimethylureido)benzyl)-1,7-dimethyl-4,5,6,7-tetrahydro-1H-pyrazolo[4,3-c]pyridine-3-carboxamide] | IC50 [1, 6]: 196 nM; EC50 [2, 7]: 33 nM
15 |  |  | CC1CN(c2ccc(C(=O)N(C)C)cn2)Cc2c(C(=O)NCc3ccc(NC(=O)N(C)C)cc3)nn(C)c21 (single isomer, unassigned) [Example 8, rel-(R or S)-5-(5-(Dimethylcarbamoyl)pyridin-2-yl)-N-(4-(3,3-dimethylureido)benzyl)-1,7-dimethyl-4,5,6,7-tetrahydro-1H-pyrazolo[4,3-c]pyridine-3-carboxamide] | IC50 [1, 6]: 14 nM; EC50 [2, 7]: 3 nM

Row | SMILES | IC50 [1, 3] [nM] | EC50 [2, 4] [nM] | also measured
16 | CC(C)n1nc(C(=O)NCc2ccc(NC(=O)N(C)C)cc2)c2c1CCN(c1ccc(C3CCNC3=O)cn1)C2 (racemic) [Example 469, rac-(R)—N-(4-(3,3-Dimethylureido)benzyl)-1-isopropyl-5-(5-(2-oxopyrrolidin-3-yl)pyridin-2-yl)-4,5,6,7-tetrahydro-1H-pyrazolo[4,3-c]pyridine-3-carboxamide] |  | 5110 | IC50 ([1]; human whole blood, IL-13 stimulated, 48 hours): > 4160 nM
